{"source": "patent EP0263493A2", "about": "“Pharmaceutic preparation to improve the gastro-intestinal resorption” (priority 1986, dated 1988)", "key": {"[1]": {"assay": "Antibiotic plasma level and bioavailability after oral or enteral (duodenal) administration, rats (bioassay with E. coli 1346)", "from_the_text": "Eine erste in vivo-Testanordnung war wie folgt: Als Versuchsobjekte wurden Menschen und Ratten eingesetzt, die ein β-Lactam-Antibiotikum sowohl oral als auch enteral erhielten. Für die orale Verabreichung wurden die Antibiotika in destilliertem Wasser oder in einem Träger wie Witepsol H15 allein oder zusammen mit CAPMUL MCM 90 und einem Resorptionsverstärker wie Natriumchenodeoxycholat (NaCDC) oder Chenodeoxycholsäure oder Natriumdeoxycholat (NaDC) oder Deoxycholsäure verwendet. In de gleichen Weise wurden die Antibiotika für die enterale Verabreichung hergerichtet und duodenal verabreicht.\nPlasmaspiegel der Antibiotika wurden im Blut aus der Armvene des Menschen und der Schwanzvene der Ratte nach Zentrifugieren bestimmt. Die Antibiotika-enthaltenden Blutproben von Ratten wurden durch Bioassay auf einer Nunc-Platte analysiert; E. coli 1346, über Nacht auf einer Antibiotika--Agar Nr. 1-Kultur kultiviert wurde mit Kochsalzlösung gewaschen, wobei eine Suspension mit 90% Durchlässigkeit auf einem Bausch und Lomb-Spectronic 20 (650 nm) hergestellt wurde. 16 ml der erhaltenen Suspension wurden zu 600 ml geschmolzenem Antibiotika-Agar Nr. 1 gegeben, 200 ml des beimpften Agars wurden auf jede Nunc-Platte (243 × 243 ×18 mm) gegeben. Die Agarplatten wurden ausgestanzt, so dass […] Proben in jede Höhlung gegeben werden konnten.\nBei den vorstehend beschriebenen Versuchen wurden Lösungen des Wirkstoffs in destilliertem Wasser bei Raumtemperatur hergestellt und sofern ein Resorptionsverstärker anwesend war, dieser in feinverteilter Form langsam eingeführt, wobei eine feinteilige Suspension erhalten wurde."}, "Ratten": {"system": "Ratten", "assay": "Insulin effect on blood glucose level after injection into the duodenum of fasted, anaesthetised rats", "type": "in vivo", "details": "presence of NaCDC in the insulin preparations, summary of Tabelle 2", "from_the_text": "In dieser Versuchsanordnung wurden Ratten über Nacht fasten gelassen, anästhesiert und der Wirkstoff durch Injektion in das Duodenum verabreicht. Blutproben aus dem Schwanz wurden zu verschiedenen Zeiten entnommen und auf chemisch vorbehandeltem Papier (Chemistrip bg. Boehringer Mannheim Diagnostics) mittels eines Accucheck bg Blutglukosemonitors (Biodynamics, Baltimore) ausgewertet."}, "[2]": {"details": "given with Natriumchenodeoxycholat instead of Wasser, summary of Tabelle 1"}}}
{"smiles": "CC1(C)S[C@@H]2[C@H](/N=C/N3CCCCCC3)C(=O)N2[C@H]1C(=O)O", "note": "[Amdinocillin]", "values": [{"measurement": "Spiegel des Antibiotikums", "setting": "[1]; in vivo", "result": "signifikant höhere Spiegel"}]}
{"smiles": "NC(=O)OC[C@@H]1[C@H](NC(=O)/C(=N\\OCC(=O)O)c2csc(N)n2)C(=O)N1S(=O)(=O)O", "note": "[Carumonam]", "values": [{"measurement": "Spiegel des Antibiotikums", "setting": "[1]; [2]", "result": "signifikant höhere Spiegel"}]}
{"smiles": "Cn1nnnc1SCC1=C(C(=O)O)N2C(=O)[C@@H](NC(=O)[C@H](O)c3ccccc3)[C@H]2SC1", "note": "[Cefamandol]", "values": [{"measurement": "Spiegel des Antibiotikums", "setting": "[1]; [2]", "result": "signifikant höhere Spiegel"}]}
{"smiles": "CO/N=C(\\C(=O)N[C@@H]1C(=O)N2C(C(=O)O)=C(CSc3nc(=O)c(=O)[nH]n3C)CS[C@H]12)c1csc(N)n1", "note": "[Ceftriaxon]", "values": [{"measurement": "Resorption von Ceftriaxon", "setting": "[1]; in vivo", "result": "synergistisch verstärkt"}, {"measurement": "Spiegel des Antibiotikums", "setting": "[1]; in vivo", "result": "signifikant höhere Spiegel"}, {"measurement": "Spiegel von Ceftriaxon", "setting": "[1]; in vivo", "result": "erhöht"}]}
{"smiles": "CO[C@@]1(NC(=O)C(C(=O)O)c2ccc(O)cc2)C(=O)N2C(C(=O)O)=C(CSc3nnnn3C)CO[C@@H]21", "note": "(stereo partly drawn) [Moxalactam]", "values": [{"measurement": "Spiegel des Antibiotikums", "setting": "[1]; in vivo", "result": "signifikant höhere Spiegel"}]}
{"smiles": "C[C@H](CCC(=O)O)[C@H]1CC[C@H]2[C@@H]3[C@H](O)C[C@@H]4C[C@H](O)CC[C@]4(C)[C@H]3CC[C@]12C", "note": "[NaCDC, Natriumchenodeoxycholat]", "values": [{"measurement": "Blutzucker", "setting": "Ratten", "result": "signifikanten zeitweisen Verminderung des Blutzuckers"}]}
{"smiles": "C[C@@H](O)[C@H]1C(=O)N2C(C(=O)O)=C(SCCN)C[C@H]12", "note": "[Thienamycin]", "values": [{"measurement": "Spiegel des Antibiotikums", "setting": "[1]; in vivo", "result": "signifikant höhere Spiegel"}]}
